For the test, the system named is CD2F1 mice, L1210 leukemia ip, survival T/C. The test is described as follows: NCI In Vivo Anticancer Drug Screen. Data for tumor model L1210 Leukemia (intraperitoneal) in CD2F1 (CDF1) mice. As to conditions: higher = longer survival. Summed up: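 Antitumor effect is scored in animals hosting a serially transplanted tumor. Values compare compound-dosed animals against vehicle-only controls as a simple quotient.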

Setting [1] is: endpoint: mean survival time, dose: 100.0 mg/kg/injection, schedule: Q04DX003 (ip), vehicle: saline with Tween-80.
Where [2] appears, read: endpoint: mean survival time, dose: 200.0 mg/kg/injection, schedule: Q04DX003 (ip), vehicle: saline with Tween-80.
The mark [3] stands for this setting: endpoint: mean survival time, dose: 400.0 mg/kg/injection, schedule: Q04DX003 (ip), vehicle: saline with Tween-80.
The mark [4] stands for this setting: endpoint: mean survival time, dose: 100.0 mg/kg/injection, schedule: Q01DX009 (ip), vehicle: saline with Tween-80.
Where [5] appears, read: endpoint: mean survival time, dose: 200.0 mg/kg/injection, schedule: Q01DX009 (ip), vehicle: saline with Tween-80.
[6] abbreviates: endpoint: mean survival time, dose: 400.0 mg/kg/injection, schedule: Q01DX009 (ip), vehicle: saline with Tween-80.
Setting [7] is: endpoint: mean survival time, dose: 200.0 mg/kg/injection, schedule: Q01DX001 (ip), vehicle: saline with Tween-80.
Setting [8] is: endpoint: mean survival time, dose: 400.0 mg/kg/injection, schedule: Q01DX001 (ip), vehicle: saline with Tween-80.
Setting [9] is: endpoint: mean survival time, dose: 300.0 mg/kg/injection, schedule: Q01DX001 (ip), vehicle: saline.
Where [10] appears, read: endpoint: mean survival time, dose: 50.0 mg/kg/injection, schedule: Q01DX009 (ip), vehicle: saline with Tween-80.
[11] abbreviates: endpoint: mean survival time, dose: 100.0 mg/kg/injection, schedule: Q04DX003 (ip), vehicle: saline.
The mark [12] stands for this setting: endpoint: mean survival time, dose: 200.0 mg/kg/injection, schedule: Q04DX003 (ip), vehicle: saline.
Where [13] appears, read: endpoint: mean survival time, dose: 400.0 mg/kg/injection, schedule: Q04DX003 (ip), vehicle: saline.

SMILES strings stand for the structures. Values joined by “and” are separate entries in the source; they are usually repeats but may differ in a detail not shown here. Equal entries are not always repeated. Inconclusive results and toxic doses are left out.

As for `Cc1c2c[n+](CCCCCCCC[n+]3ccc4c(C)c5c(c(C)c4c3)c3ccccc3n5CCO)ccc2c(C)c2c1c1ccccc1n2CCO`, the T/C (endpoint: mean survival time, dose: 1.56 mg/kg/injection, schedule: Q04DX003 (ip), vehicle: distilled water + Tween-80) was 119 % of control; the T/C (endpoint: mean survival time, dose: 6.25 mg/kg/injection, schedule: Q04DX003 (ip), vehicle: distilled water + Tween-80) is 150 % of control and 159 % of control; the T/C (endpoint: mean survival time, dose: 12.5 mg/kg/injection, schedule: Q04DX003 (ip), vehicle: distilled water + Tween-80) was 114 % of control.

As to `Fc1ccc(NC(=S)S)cc1`, the T/C runs as follows: (endpoint: mean survival time, dose: 6.25 mg/kg/injection, schedule: Q01DX009 (ip), vehicle: saline) 86 % of control; (endpoint: mean survival time, dose: 12.5 mg/kg/injection, schedule: Q01DX009 (ip), vehicle: saline) 114 % of control; (endpoint: mean survival time, dose: 25.0 mg/kg/injection, schedule: Q01DX009 (ip), vehicle: saline) 93 % of control.

Consider `COc1cc(/C=N/NC(=O)c2cccs2)cc(OC)c1OC`, for which the T/C is, setting by setting: under setting [1], 98 % of control; under setting [2], 93 % of control; under setting [3], 88 % of control.

Turning to `Clc1ccc(CN2CN(Cc3ccc(Cl)cc3)CN(Cc3ccc(Cl)cc3)C2)cc1`, the T/C under setting [4] was 95 % of control; the T/C under setting [1] was 100 % of control; the T/C under setting [5] was 97 % of control; the T/C under setting [2] was 97 % of control; the T/C under setting [6] was 100 % of control; the T/C under setting [3] was 97 % of control.

`Cc1ccc([Si](OO[Si](c2ccccc2)(c2ccccc2)c2ccc(C)cc2)(c2ccccc2)c2ccccc2)cc1`: the T/C was 98 % of control under setting [4]; 98 % of control under setting [1]; 93 % of control under setting [5]; 100 % of control under setting [2]; 95 % of control under setting [6]; 98 % of control under setting [3].

As for `Nc1nc2c(ncn2-c2ccc(OCCCc3ccccc3)cc2)c(=O)[nH]1`, the T/C is 88 % of control under setting [7] and 89 % of control under setting [8].

On to `CCOC(=O)CC(=O)C(F)(F)F`, for which the T/C runs as follows: (endpoint: mean survival time, dose: 75.0 mg/kg/injection, schedule: Q01DX001 (ip), vehicle: saline) 95 % of control; (endpoint: mean survival time, dose: 150.0 mg/kg/injection, schedule: Q01DX001 (ip), vehicle: saline) 97 % of control; under setting [9], 101 % of control.

`Nc1ccc(C(=O)O)cc1`: the T/C (endpoint: mean survival time, dose: 100.0 mg/kg/injection, schedule: Q01DX001 (ip), vehicle: saline with Tween-80) is 95 % of control; the T/C under setting [7] is 100 % of control; the T/C under setting [8] is 101 % of control.

For the compound `CN(C)N=Nc1c(F)c(F)cc(F)c1F`, the T/C reads like this: (endpoint: mean survival time, dose: 25.0 mg/kg/injection, schedule: Q01DX009 (ip), vehicle: saline with Tween-80) 102 % of control; under setting [10], 107 % of control; under setting [5], 151 % of control; under setting [6], 112 % of control.

In the case of `O=C(O)c1ccc([N+](=O)[O-])cc1C(=O)O.[NH-]C1CCCCC1[NH-].[Pt+2]`, the T/C is, setting by setting: (endpoint: median survival time, dose: 3.12 mg/kg/injection, schedule: Q04DX003 (ip), vehicle: saline) 100 % of control and 110 % of control; (endpoint: median survival time, dose: 6.25 mg/kg/injection, schedule: Q04DX003 (ip), vehicle: saline) 121 % of control and 110 % of control; (endpoint: median survival time, dose: 12.5 mg/kg/injection, schedule: Q04DX003 (ip), vehicle: saline) 116 % of control; (endpoint: median survival time, dose: 50.0 mg/kg/injection, schedule: Q04DX003 (ip), vehicle: saline) 176 % of control; (endpoint: median survival time, dose: 100.0 mg/kg/injection, schedule: Q04DX003 (ip), vehicle: saline) 183 % of control and 282 % of control; (endpoint: median survival time, dose: 200.0 mg/kg/injection, schedule: Q04DX003 (ip), vehicle: saline) 97 % of control.

As to `OC1(c2ccccc2)c2ccccc2C(O)(c2ccccc2)c2c1ccc1ccccc21` (stereo unspecified), the T/C reads like this: under setting [10], 91 % of control; under setting [4], 94 % of control; under setting [5], 91 % of control.

On to `Cc1ccc(NC(=O)c2ccc(Cl)cc2)c(Br)c1`, for which the T/C reads like this: under setting [1], 103 % of control; under setting [2], 105 % of control; under setting [3], 97 % of control.

For `COc1ccc(/C=C2/C=C(c3ccccc3)OC2=O)cc1`, the T/C by setting is: under setting [11], 98 % of control; under setting [12], 101 % of control; under setting [13], 98 % of control.

Turning to `CC(=O)Nc1ccc(CN2CC(C)N(N)C(C)C2)cc1` (stereo unspecified), the T/C by setting is: (endpoint: mean survival time, dose: 12.5 mg/kg/injection, schedule: Q01DX009 (ip), vehicle: Klucel (hydroxypropylcellulose) (HPC)) 103 % of control; (endpoint: mean survival time, dose: 25.0 mg/kg/injection, schedule: Q01DX009 (ip), vehicle: Klucel (hydroxypropylcellulose) (HPC)) 98 % of control; (endpoint: mean survival time, dose: 50.0 mg/kg/injection, schedule: Q01DX009 (ip), vehicle: Klucel (hydroxypropylcellulose) (HPC)) 98 % of control; (endpoint: mean survival time, dose: 100.0 mg/kg/injection, schedule: Q01DX009 (ip), vehicle: Klucel (hydroxypropylcellulose) (HPC)) 101 % of control; (endpoint: mean survival time, dose: 200.0 mg/kg/injection, schedule: Q01DX009 (ip), vehicle: Klucel (hydroxypropylcellulose) (HPC)) 103 % of control; (endpoint: mean survival time, dose: 400.0 mg/kg/injection, schedule: Q01DX009 (ip), vehicle: Klucel (hydroxypropylcellulose) (HPC)) 89 % of control.

Regarding `CSc1nc(NC2OCC(O)C(O)C2O)c(Br)c(=O)[nH]1` (stereo unspecified), the T/C (endpoint: median survival time, dose: 12.5 mg/kg/injection, schedule: Q01DX005 (ip), vehicle: saline with Tween-80) was 101 % of control; the T/C (endpoint: median survival time, dose: 25.0 mg/kg/injection, schedule: Q01DX005 (ip), vehicle: saline with Tween-80) was 101 % of control; the T/C (endpoint: median survival time, dose: 50.0 mg/kg/injection, schedule: Q01DX005 (ip), vehicle: saline with Tween-80) was 101 % of control; the T/C (endpoint: median survival time, dose: 100.0 mg/kg/injection, schedule: Q01DX005 (ip), vehicle: saline with Tween-80) was 101 % of control; the T/C (endpoint: median survival time, dose: 200.0 mg/kg/injection, schedule: Q01DX005 (ip), vehicle: saline with Tween-80) is 101 % of control.

For the compound `CNCCc1ccc(O)c(O)c1`, the T/C under setting [9] was 100 % of control.

Turning to `N#CC1C(=O)NC(O)(c2ccccc2)C1c1ccccc1` (stereo unspecified), the T/C was 105 % of control (endpoint: mean survival time, dose: 25.0 mg/kg/injection, schedule: Q04DX003 (ip), vehicle: saline with Tween-80); 105 % of control (endpoint: mean survival time, dose: 50.0 mg/kg/injection, schedule: Q04DX003 (ip), vehicle: saline with Tween-80); 97 % of control and 105 % of control under setting [1].

Turning to `CC(C)NC(=O)NO`, the T/C (endpoint: mean survival time, dose: 4.0 mg/kg/injection, schedule: Q03HX024 (ip), vehicle: saline) was 95 % of control; the T/C (endpoint: mean survival time, dose: 8.0 mg/kg/injection, schedule: Q03HX024 (ip), vehicle: saline) is 98 % of control; the T/C (endpoint: mean survival time, dose: 16.0 mg/kg/injection, schedule: Q03HX024 (ip), vehicle: saline) was 103 % of control; the T/C (endpoint: mean survival time, dose: 32.0 mg/kg/injection, schedule: Q03HX024 (ip), vehicle: saline) is 98 % of control; the T/C (endpoint: mean survival time, dose: 62.0 mg/kg/injection, schedule: Q03HX024 (ip), vehicle: saline with Tween-80) is 87 % of control; the T/C (endpoint: mean survival time, dose: 64.0 mg/kg/injection, schedule: Q03HX024 (ip), vehicle: saline) was 98 % of control.

As to `CN(Cc1cnc2nc(N)nc(N)c2c1)c1ccc(C(=O)NC(CCC(=O)O)C(=O)O)cc1` (stereo unspecified), the T/C is 158 % of control (endpoint: median survival time, dose: 4.0 mg/kg/injection, schedule: Q01DX005 (ip), vehicle: other) and 158 % of control (endpoint: median survival time, dose: 8.0 mg/kg/injection, schedule: Q01DX005 (ip), vehicle: other).

As for `C=C1C(=O)OC(CCCCCCCCCCCCC)C1C(=O)O` (stereo unspecified), the T/C by setting is: (endpoint: mean survival time, dose: 10.0 mg/kg/injection, schedule: Q04DX002 (ip), vehicle: saline with Tween-80) 108 % of control; (endpoint: mean survival time, dose: 20.0 mg/kg/injection, schedule: Q04DX002 (ip), vehicle: saline with Tween-80) 87 % of control.

For the compound `CCCCOC(=O)c1ccc(NC(=O)NCCC)cc1`, the T/C reads like this: under setting [11], 101 % of control; under setting [12], 101 % of control; under setting [13], 97 % of control.

With `CC1NC(C)SC(C)S1` (stereo unspecified), the T/C under setting [1] was 101 % of control and the T/C under setting [2] is 98 % of control.

Take `Cc1c(F)c(F)c(C(=O)O)c(F)c1F`: the T/C runs as follows: under setting [4], 96 % of control; under setting [1], 100 % of control; under setting [5], 93 % of control; under setting [2], 101 % of control; under setting [3], 93 % of control.

`Cc1cn(CC(=O)c2cc3ccccc3[nH]2)c(=O)[nH]c1=O`: the T/C (endpoint: mean survival time, dose: 100.0 mg/kg/injection, schedule: Q04DX002 (ip), vehicle: saline with Tween-80) was 93 % of control; the T/C (endpoint: mean survival time, dose: 200.0 mg/kg/injection, schedule: Q04DX002 (ip), vehicle: saline with Tween-80) is 93 % of control; the T/C (endpoint: mean survival time, dose: 400.0 mg/kg/injection, schedule: Q04DX002 (ip), vehicle: saline with Tween-80) was 101 % of control.

The values above are taken from PubChem BioAssay AID256 (DTP/NCI, 2004).
